Data: PubChem BioAssay AID248 (DTP/NCI, 2004)
“And” between values parts separate entries of the source, which are not always exact repeats. Equal entries are not always repeated. Inconclusive results and toxic doses are left out. Cut-off read from the data, not from the text of the source: active = T/C of 150% or more; inactive = T/C below 125%.

Tested on: L1210 leukemia ip in BDF1 mice, survival T/C
Test: NCI In Vivo Anticancer Drug Screen. Data for tumor model L1210 Leukemia (intraperitoneal) in B6D2F1 (BDF1) mice
Conditions: endpoint: mean survival time, higher = longer survival
Outline: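 Read-out is survival time, reported as the treated-group measurement over the vehicle-control measurement.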

[1] = dose: 100.0 mg/kg/injection, schedule: Q04DX003 (ip), vehicle: saline with Tween-80
[2] = dose: 200.0 mg/kg/injection, schedule: Q04DX003 (ip), vehicle: saline with Tween-80
[3] = dose: 400.0 mg/kg/injection, schedule: Q04DX003 (ip), vehicle: saline with Tween-80
[4] = dose: 100.0 mg/kg/injection, schedule: Q01DX009 (ip), vehicle: Klucel (hydroxypropylcellulose) (HPC)
[5] = dose: 100.0 mg/kg/injection, schedule: Q04DX003 (ip), vehicle: Klucel (hydroxypropylcellulose) (HPC)
[6] = dose: 200.0 mg/kg/injection, schedule: Q01DX009 (ip), vehicle: Klucel (hydroxypropylcellulose) (HPC)
[7] = dose: 200.0 mg/kg/injection, schedule: Q04DX003 (ip), vehicle: Klucel (hydroxypropylcellulose) (HPC)
[8] = dose: 400.0 mg/kg/injection, schedule: Q01DX009 (ip), vehicle: Klucel (hydroxypropylcellulose) (HPC)
[9] = dose: 400.0 mg/kg/injection, schedule: Q04DX003 (ip), vehicle: Klucel (hydroxypropylcellulose) (HPC)

Measured: T/C

CCN(CC)CC(O)c1ccccc1 (stereo not given)
inactive: dose: 25.0 mg/kg/injection, schedule: Q01DX009 (ip), vehicle: saline 100 % of control | dose: 25.0 mg/kg/injection, schedule: Q04DX003 (ip), vehicle: saline 98 % of control | dose: 50.0 mg/kg/injection, schedule: Q01DX009 (ip), vehicle: saline 98 % of control | dose: 50.0 mg/kg/injection, schedule: Q04DX003 (ip), vehicle: saline 93 % of control | dose: 100.0 mg/kg/injection, schedule: Q04DX003 (ip), vehicle: saline 100 % of control

C1N2CN3CN1CN(C2)C3 (tested in a mixture with another compound)
inactive: [1] 107 % of control | [2] 103 % of control | [3] 102 % of control

COc1ccc(/C=C(\NC(C)=O)C(=O)O)cc1
inactive: [4] 104 % of control | [5] 100 % of control | [6] 97 % of control | [7] 100 % of control | [8] 98 % of control | [9] 112 % of control

COc1cc(CC(=O)O)c(OC)cc1CC(=O)O
inactive: dose: 100.0 mg/kg/injection, schedule: Q01DX009 (ip), vehicle: saline with Tween-80 101 % of control | [1] 93 % of control | dose: 200.0 mg/kg/injection, schedule: Q01DX009 (ip), vehicle: saline with Tween-80 99 % of control | [2] 96 % of control | dose: 400.0 mg/kg/injection, schedule: Q01DX009 (ip), vehicle: saline with Tween-80 94 % of control | [3] 94 % of control

CN(C1CCCC1)C1CCCC1
inactive: dose: 10.0 mg/kg/injection, schedule: Q01DX009 (ip), vehicle: Klucel (hydroxypropylcellulose) (HPC) 106 % of control | dose: 10.0 mg/kg/injection, schedule: Q04DX003 (ip), vehicle: Klucel (hydroxypropylcellulose) (HPC) 102 % of control | dose: 20.0 mg/kg/injection, schedule: Q01DX009 (ip), vehicle: Klucel (hydroxypropylcellulose) (HPC) 104 % of control | dose: 20.0 mg/kg/injection, schedule: Q04DX003 (ip), vehicle: Klucel (hydroxypropylcellulose) (HPC) 94 % of control | dose: 40.0 mg/kg/injection, schedule: Q01DX009 (ip), vehicle: Klucel (hydroxypropylcellulose) (HPC) 102 % of control | dose: 40.0 mg/kg/injection, schedule: Q04DX003 (ip), vehicle: Klucel (hydroxypropylcellulose) (HPC) 96 % of control

CCCCCCCCCCCCCCCCOc1ccc(C2=NCC(C)S2)c(C)c1 (stereo not given)
inactive: [4] 101 % of control | [6] 96 % of control | [8] 97 % of control

O=C(NCCN1CCOCC1)c1ccc(C(=O)NCCN2CCOCC2)cc1
inactive: dose: 100.0 mg/kg/injection, schedule: Q01DX001 (ip), vehicle: saline 103 % of control | dose: 200.0 mg/kg/injection, schedule: Q01DX001 (ip), vehicle: saline 105 % of control | dose: 400.0 mg/kg/injection, schedule: Q01DX001 (ip), vehicle: saline 100 % of control

Brc1cc(Cc2c(Br)csc2Br)c(Br)s1
inactive: dose: 100.0 mg/kg/injection, schedule: Q04DX002 (ip), vehicle: saline with Tween-80 101 % of control | dose: 200.0 mg/kg/injection, schedule: Q04DX002 (ip), vehicle: saline with Tween-80 101 % of control | dose: 400.0 mg/kg/injection, schedule: Q04DX002 (ip), vehicle: saline with Tween-80 101 % of control

CC1(C)CN1C1=C(NC(=O)CCl)C(=O)c2ccccc2C1=O
inactive: [5] 87 % of control | [7] 94 % of control | [9] 91 % of control

CC(C)=NN=C(N)N
inactive: dose: 15.0 mg/kg/injection, schedule: Q01DX Z (ip), vehicle: carboxymethylcellulose (CMC) 100 % of control | dose: 15.0 mg/kg/injection, schedule: Q01DX Z (ip), vehicle: saline 107 % of control | dose: 30.0 mg/kg/injection, schedule: Q01DX Z (ip), vehicle: carboxymethylcellulose (CMC) 101 % of control | dose: 30.0 mg/kg/injection, schedule: Q01DX Z (ip), vehicle: saline 101 % of control | dose: 60.0 mg/kg/injection, schedule: Q01DX Z (ip), vehicle: carboxymethylcellulose (CMC) 96 % of control and 106 % of control | dose: 60.0 mg/kg/injection, schedule: Q01DX Z (ip), vehicle: saline 95 % of control | dose: 60.0 mg/kg/injection, schedule: Q01DX Z (oral), vehicle: saline 92 % of control | dose: 120.0 mg/kg/injection, schedule: Q01DX Z (ip), vehicle: carboxymethylcellulose (CMC) 93 % of control and 95 % of control | dose: 120.0 mg/kg/injection, schedule: Q01DX Z (ip), vehicle: saline 95 % of control | dose: 120.0 mg/kg/injection, schedule: Q01DX Z (oral), vehicle: carboxymethylcellulose (CMC) 106 % of control | dose: 120.0 mg/kg/injection, schedule: Q01DX Z (oral), vehicle: saline 109 % of control | dose: 240.0 mg/kg/injection, schedule: Q01DX Z (ip), vehicle: carboxymethylcellulose (CMC) 101 % of control | dose: 240.0 mg/kg/injection, schedule: Q01DX Z (ip), vehicle: saline 88 % of control | dose: 240.0 mg/kg/injection, schedule: Q01DX Z (oral), vehicle: carboxymethylcellulose (CMC) 102 % of control | dose: 240.0 mg/kg/injection, schedule: Q01DX Z (oral), vehicle: saline 97 % of control | dose: 480.0 mg/kg/injection, schedule: Q01DX Z (oral), vehicle: carboxymethylcellulose (CMC) 116 % of control | dose: 480.0 mg/kg/injection, schedule: Q01DX Z (oral), vehicle: saline 92 % of control

CCCCCCCC(=O)N(C(C)C)C(C)C
inactive: dose: 100.0 mg/kg/injection, schedule: Q01DX001 (ip), vehicle: carboxymethylcellulose (CMC) 108 % of control | dose: 100.0 mg/kg/injection, schedule: Q01DX009 (ip), vehicle: carboxymethylcellulose (CMC) 101 % of control and 103 % of control | dose: 100.0 mg/kg/injection, schedule: Q04DX002 (ip), vehicle: carboxymethylcellulose (CMC) 100 % of control | dose: 100.0 mg/kg/injection, schedule: Q04DX003 (ip), vehicle: carboxymethylcellulose (CMC) 100 % of control | dose: 200.0 mg/kg/injection, schedule: Q01DX001 (ip), vehicle: carboxymethylcellulose (CMC) 98 % of control | dose: 200.0 mg/kg/injection, schedule: Q01DX009 (ip), vehicle: carboxymethylcellulose (CMC) 93 % of control and 109 % of control | dose: 200.0 mg/kg/injection, schedule: Q04DX002 (ip), vehicle: carboxymethylcellulose (CMC) 89 % of control | dose: 200.0 mg/kg/injection, schedule: Q04DX003 (ip), vehicle: carboxymethylcellulose (CMC) 102 % of control | dose: 400.0 mg/kg/injection, schedule: Q01DX001 (ip), vehicle: carboxymethylcellulose (CMC) 96 % of control | dose: 400.0 mg/kg/injection, schedule: Q01DX009 (ip), vehicle: carboxymethylcellulose (CMC) 103 % of control and 111 % of control | dose: 400.0 mg/kg/injection, schedule: Q04DX002 (ip), vehicle: carboxymethylcellulose (CMC) 96 % of control | dose: 400.0 mg/kg/injection, schedule: Q04DX003 (ip), vehicle: carboxymethylcellulose (CMC) 105 % of control

Cc1nc(N)nn1C
inactive: dose: 100.0 mg/kg/injection, schedule: Q04DX002 (ip), vehicle: saline 97 % of control | dose: 200.0 mg/kg/injection, schedule: Q04DX002 (ip), vehicle: saline 110 % of control | dose: 400.0 mg/kg/injection, schedule: Q04DX002 (ip), vehicle: saline 100 % of control
